Test results published in ChEMBL document CHEMBL5653631, “A Potent and Selective ULK1 Inhibitor Suppresses Autophagy and Sensitizes Cancer Cells to Nutrient Stress” (iScience, 2018).
One block for each compound: values may come before it.

Columns and labels:
[1] = biological target: Serine/threonine-protein kinase 25 (Homo sapiens) (UniProt O00506); experiment: Inhibition of human recombinant YSK1 at 500 nM in presence of ATP by radiometric assay relative to control
[2] = biological target: Glycogen synthase kinase-3 beta (Homo sapiens) (UniProt P49841); experiment: Inhibition of human recombinant GSK3B at 500 nM related to control ULK1
[3] = biological target: Insulin-like growth factor 1 receptor (Homo sapiens) (UniProt P08069); experiment: Inhibition of human recombinant IGF1R at 500 nM in presence of ATP by radiometric assay relative to control
[4] = biological target: Dual specificity protein kinase CLK4 (Homo sapiens) (UniProt Q9HAZ1); experiment: Inhibition of human recombinant CLK4 at 40 nM related to control ULK1
[5] = biological target: Serine/threonine-protein kinase SIK1 (Homo sapiens) (UniProt P57059); experiment: Inhibition of human recombinant SIK at 40 nM in presence of ATP by radiometric assay relative to control
[6] = biological target: T1, Serine/threonine-protein kinase Nek1 (Homo sapiens) (UniProt Q96PY6); experiment: Inhibition of human recombinant NEK1 at 40 nM in presence of ATP by radiometric assay relative to control
T1 sequence (whole entry): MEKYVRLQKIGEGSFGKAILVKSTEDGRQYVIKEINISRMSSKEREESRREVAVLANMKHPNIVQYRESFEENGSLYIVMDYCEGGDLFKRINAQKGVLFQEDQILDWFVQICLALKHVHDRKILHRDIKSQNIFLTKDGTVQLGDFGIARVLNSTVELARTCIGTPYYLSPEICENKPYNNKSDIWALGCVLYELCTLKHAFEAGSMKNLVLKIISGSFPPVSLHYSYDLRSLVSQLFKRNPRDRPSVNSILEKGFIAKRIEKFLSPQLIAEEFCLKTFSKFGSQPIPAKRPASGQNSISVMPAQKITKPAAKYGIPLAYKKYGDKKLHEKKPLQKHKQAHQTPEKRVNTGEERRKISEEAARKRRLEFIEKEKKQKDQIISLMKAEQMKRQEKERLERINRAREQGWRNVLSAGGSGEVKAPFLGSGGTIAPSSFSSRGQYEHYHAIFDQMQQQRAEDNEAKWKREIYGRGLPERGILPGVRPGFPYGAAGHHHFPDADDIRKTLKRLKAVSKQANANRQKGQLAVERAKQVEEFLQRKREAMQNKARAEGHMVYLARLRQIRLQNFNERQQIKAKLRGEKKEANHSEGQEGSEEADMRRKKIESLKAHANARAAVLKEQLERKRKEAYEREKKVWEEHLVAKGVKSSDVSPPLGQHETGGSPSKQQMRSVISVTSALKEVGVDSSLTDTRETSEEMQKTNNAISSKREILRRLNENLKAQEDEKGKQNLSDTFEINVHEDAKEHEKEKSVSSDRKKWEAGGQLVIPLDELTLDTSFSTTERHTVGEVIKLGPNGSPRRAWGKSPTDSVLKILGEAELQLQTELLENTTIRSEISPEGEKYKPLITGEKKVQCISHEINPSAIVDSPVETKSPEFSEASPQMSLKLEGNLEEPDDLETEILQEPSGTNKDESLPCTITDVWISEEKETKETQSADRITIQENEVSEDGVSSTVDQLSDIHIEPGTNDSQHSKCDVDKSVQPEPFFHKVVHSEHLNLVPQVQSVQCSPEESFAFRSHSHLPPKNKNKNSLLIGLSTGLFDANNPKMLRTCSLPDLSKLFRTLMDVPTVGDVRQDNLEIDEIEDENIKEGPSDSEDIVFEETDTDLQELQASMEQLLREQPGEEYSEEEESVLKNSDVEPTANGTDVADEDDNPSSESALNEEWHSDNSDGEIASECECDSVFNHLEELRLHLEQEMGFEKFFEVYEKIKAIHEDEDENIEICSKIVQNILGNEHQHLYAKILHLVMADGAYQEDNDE

[7] = biological target: T2, Tyrosine-protein kinase JAK3 (Homo sapiens) (UniProt P52333); experiment: Inhibition of human recombinant JAK3 at 15 nM related to control ULK1
T2 sequence (whole entry): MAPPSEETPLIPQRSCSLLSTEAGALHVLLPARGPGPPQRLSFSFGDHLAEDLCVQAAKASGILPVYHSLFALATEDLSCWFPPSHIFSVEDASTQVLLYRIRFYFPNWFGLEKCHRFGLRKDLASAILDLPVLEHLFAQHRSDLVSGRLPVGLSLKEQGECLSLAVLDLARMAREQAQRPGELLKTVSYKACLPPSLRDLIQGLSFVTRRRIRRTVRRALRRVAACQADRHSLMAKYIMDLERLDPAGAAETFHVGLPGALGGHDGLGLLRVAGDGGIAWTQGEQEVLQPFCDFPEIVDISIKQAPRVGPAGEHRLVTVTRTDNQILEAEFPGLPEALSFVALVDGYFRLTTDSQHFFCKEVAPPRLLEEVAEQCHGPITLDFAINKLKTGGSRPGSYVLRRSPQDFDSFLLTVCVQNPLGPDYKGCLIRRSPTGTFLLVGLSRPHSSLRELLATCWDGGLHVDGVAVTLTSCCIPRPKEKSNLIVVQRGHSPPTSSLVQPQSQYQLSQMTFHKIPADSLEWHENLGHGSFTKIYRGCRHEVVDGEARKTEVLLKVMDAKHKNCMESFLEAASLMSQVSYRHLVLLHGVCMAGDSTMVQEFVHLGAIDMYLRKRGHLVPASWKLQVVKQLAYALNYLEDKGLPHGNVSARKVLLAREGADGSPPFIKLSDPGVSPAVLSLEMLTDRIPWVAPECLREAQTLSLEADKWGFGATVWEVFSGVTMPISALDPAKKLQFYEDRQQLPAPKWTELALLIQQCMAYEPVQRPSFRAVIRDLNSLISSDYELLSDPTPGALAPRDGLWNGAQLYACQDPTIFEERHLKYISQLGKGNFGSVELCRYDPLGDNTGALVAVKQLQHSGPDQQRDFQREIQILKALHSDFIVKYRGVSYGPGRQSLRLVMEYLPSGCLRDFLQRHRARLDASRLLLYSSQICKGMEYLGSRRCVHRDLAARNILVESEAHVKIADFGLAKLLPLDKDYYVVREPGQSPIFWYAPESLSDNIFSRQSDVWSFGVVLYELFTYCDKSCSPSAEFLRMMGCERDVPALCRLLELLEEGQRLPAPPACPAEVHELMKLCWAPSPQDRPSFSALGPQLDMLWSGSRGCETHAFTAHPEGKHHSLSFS

Sequence of Serine/threonine-protein kinase 25 (Homo sapiens) (O00506 whole entry, looked up): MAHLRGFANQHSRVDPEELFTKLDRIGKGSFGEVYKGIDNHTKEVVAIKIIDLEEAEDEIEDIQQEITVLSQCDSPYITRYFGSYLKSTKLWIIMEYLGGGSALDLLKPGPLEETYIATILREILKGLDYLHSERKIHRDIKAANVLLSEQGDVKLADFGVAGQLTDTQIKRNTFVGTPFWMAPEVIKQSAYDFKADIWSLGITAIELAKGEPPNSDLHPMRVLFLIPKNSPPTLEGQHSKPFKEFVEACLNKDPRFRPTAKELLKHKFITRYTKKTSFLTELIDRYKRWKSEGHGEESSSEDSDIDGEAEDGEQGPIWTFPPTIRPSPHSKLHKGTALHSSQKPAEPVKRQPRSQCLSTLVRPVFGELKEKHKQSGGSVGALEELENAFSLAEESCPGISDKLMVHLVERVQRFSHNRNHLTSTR
Sequence of Dual specificity protein kinase CLK4 (Homo sapiens) (Q9HAZ1 whole entry, looked up): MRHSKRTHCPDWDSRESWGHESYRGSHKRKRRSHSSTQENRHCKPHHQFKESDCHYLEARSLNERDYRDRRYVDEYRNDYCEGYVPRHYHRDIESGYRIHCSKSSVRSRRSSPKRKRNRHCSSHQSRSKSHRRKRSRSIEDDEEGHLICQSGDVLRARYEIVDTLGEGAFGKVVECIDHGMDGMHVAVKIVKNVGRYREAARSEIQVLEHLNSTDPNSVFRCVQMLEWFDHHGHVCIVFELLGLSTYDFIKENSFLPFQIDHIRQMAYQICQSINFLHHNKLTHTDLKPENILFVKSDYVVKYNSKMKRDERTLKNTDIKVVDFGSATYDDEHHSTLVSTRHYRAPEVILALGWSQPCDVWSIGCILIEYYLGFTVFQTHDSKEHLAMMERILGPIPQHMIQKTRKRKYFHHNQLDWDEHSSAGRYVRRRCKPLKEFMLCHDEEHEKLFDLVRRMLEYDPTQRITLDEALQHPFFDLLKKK
Sequence of Insulin-like growth factor 1 receptor (Homo sapiens) (P08069 31-736 limits assumed): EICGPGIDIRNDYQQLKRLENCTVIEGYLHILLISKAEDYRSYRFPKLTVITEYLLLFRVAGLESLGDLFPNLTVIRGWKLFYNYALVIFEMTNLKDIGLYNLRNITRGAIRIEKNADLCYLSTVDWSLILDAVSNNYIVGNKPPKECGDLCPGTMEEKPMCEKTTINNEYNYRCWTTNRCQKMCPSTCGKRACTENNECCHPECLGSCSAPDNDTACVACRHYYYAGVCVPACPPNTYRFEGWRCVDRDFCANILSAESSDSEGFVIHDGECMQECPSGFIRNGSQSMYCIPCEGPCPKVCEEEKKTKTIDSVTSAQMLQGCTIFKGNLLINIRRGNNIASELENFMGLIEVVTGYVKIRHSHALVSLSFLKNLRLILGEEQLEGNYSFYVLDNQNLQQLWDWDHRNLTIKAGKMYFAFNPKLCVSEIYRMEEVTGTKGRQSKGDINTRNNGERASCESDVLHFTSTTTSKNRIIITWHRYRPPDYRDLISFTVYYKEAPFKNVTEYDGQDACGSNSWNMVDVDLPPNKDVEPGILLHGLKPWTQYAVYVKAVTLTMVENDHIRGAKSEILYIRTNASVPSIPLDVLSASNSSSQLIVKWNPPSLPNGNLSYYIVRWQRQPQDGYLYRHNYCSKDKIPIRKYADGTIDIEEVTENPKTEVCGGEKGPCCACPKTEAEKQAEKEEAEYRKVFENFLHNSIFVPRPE
Sequence of Insulin-like growth factor 1 receptor (Homo sapiens) (P08069 741-1367 limits assumed): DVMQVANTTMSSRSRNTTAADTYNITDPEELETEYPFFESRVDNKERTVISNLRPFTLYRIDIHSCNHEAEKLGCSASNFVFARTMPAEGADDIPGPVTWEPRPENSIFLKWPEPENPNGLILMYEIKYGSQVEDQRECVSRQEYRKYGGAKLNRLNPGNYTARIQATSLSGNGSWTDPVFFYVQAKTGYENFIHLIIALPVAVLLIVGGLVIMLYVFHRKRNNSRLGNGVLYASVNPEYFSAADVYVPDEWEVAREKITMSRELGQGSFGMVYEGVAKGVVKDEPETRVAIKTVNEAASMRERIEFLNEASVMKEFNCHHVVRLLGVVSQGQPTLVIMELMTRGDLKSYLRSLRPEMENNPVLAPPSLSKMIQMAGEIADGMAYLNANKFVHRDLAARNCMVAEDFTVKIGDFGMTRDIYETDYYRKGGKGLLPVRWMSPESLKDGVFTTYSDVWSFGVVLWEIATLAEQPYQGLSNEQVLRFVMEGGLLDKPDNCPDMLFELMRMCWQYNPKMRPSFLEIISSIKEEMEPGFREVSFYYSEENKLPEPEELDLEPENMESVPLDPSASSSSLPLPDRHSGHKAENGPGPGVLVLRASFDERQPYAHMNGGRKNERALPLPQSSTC
Sequence of Glycogen synthase kinase-3 beta (Homo sapiens) (P49841 whole entry, looked up): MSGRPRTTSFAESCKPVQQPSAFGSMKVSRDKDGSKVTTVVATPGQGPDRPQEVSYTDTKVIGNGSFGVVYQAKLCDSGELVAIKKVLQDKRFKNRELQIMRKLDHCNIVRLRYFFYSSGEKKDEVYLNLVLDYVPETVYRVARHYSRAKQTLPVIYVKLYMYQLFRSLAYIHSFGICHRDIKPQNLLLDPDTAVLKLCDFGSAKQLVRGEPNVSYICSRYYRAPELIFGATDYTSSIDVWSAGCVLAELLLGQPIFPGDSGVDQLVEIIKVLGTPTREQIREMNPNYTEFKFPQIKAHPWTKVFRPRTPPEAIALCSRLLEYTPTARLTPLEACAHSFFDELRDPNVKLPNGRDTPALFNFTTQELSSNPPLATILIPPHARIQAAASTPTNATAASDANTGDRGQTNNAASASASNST
Sequence of Serine/threonine-protein kinase SIK1 (Homo sapiens) (P57059 whole entry): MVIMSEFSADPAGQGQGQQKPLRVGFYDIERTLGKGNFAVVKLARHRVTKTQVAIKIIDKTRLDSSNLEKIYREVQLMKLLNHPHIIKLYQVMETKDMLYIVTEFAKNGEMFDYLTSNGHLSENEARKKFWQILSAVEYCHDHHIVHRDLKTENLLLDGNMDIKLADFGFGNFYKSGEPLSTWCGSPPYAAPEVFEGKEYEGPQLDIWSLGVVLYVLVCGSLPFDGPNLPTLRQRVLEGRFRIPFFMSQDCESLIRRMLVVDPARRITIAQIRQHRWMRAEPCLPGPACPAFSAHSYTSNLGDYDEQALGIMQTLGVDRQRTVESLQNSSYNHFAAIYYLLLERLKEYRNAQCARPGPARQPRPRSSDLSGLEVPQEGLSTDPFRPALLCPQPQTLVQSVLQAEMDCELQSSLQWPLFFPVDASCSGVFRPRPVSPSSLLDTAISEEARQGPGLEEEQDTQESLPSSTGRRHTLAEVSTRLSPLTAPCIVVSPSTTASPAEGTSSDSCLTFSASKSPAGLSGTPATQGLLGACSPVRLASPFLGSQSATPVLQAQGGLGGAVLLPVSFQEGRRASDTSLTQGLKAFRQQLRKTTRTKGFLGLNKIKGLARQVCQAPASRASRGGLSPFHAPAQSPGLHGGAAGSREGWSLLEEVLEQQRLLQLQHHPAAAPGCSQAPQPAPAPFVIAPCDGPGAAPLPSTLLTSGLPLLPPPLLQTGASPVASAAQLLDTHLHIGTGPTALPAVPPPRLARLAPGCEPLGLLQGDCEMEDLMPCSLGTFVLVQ

- inhibition [1]: 12%
- fold change (FC) [2]: 0
- inhibition [3]: 3%
SMILES: CNC(=O)c1ccccc1Oc1nc(Nc2cc(OC)c(OC)c(OC)c2)ncc1Br

- fold change (FC) [4]: 0.71
- inhibition [5]: 20%
- inhibition [6]: 0%
SMILES: O=C(N[C@@H](C1CC1)C(F)(F)F)c1cc(-c2cnn3cc(-c4ccc(F)cc4)cnc23)cs1

- fold change (FC) [7]: 0
SMILES: CC(C)[C@H](NC(=O)c1cc(-c2cnn3cc(-c4ccc(OCCN5CCCCC5)cc4)cnc23)cs1)C(F)(F)F
